# Data from patent US8691183B2, “Means for the detection and treatment of prostate cells” (Eberhard-Karls-Universitaet Tuebingen Universitaetsklinikum, priority 2008, dated 2014).
# Entries after “also recorded” stand apart in the source; their conditions may differ.
# How the values were obtained:
# [1] = tested on: other tumor cell lines (non-prostate); assay: In-vitro MRT / MR relaxometry of cells in Eppendorf tubes; type: cell-based, human; conditions: other carcinoma cells; incubation, washed three times with PBS
# Protocol: (§1) For the MR relaxometry, all tumor cell lines were grown in 75 cm^2 culture flasks (Corning Costar, Bodenheim, Germany) (70% confluency). Accutase™ (PAA Laboratories, Pasching, Austria) was added to achieve detachment of the cells, which were harvested and subsequently aliquoted into Eppendorf tubes (6×10^6 cells per tube). The cells in the tubes were incubated with the DOTA-containing compounds (130 μM). After a 20 minutes incubation period at 37° C. in an atmosphere of 5% CO2, the cells were washed three times in PBS and centrifuged at 800 rpm for 5 minutes.
# (§2) The in-vitro MRT was performed with a 3 Tesla-whole body MRT system (Magnetom TRIO, circular polarized wrist coil, Siemens, Erlangen, Germany)
# (§3) Sagittal T1-weighted MR images were obtained using the following spin-echo sequence:
# (§4) Repetition time (TR): 200 ms, echo time (TE): 7,4 ms, flip angle: 90°, averages: 1, concatenations: 2, measurements: 1, number of slices: 19, distance factor: 30%, slice thickness: 3 mm, field of view read: 180 mm/100%, resolution: 256/100%, voxel size: 0.7×0.7×3.0 mm, scan time: 1:48 min.
# (§5) The T1 relaxation times were evaluated from signal intensities obtained by multiple spin-echo measurements:
# (§6) Repetition time (TR): 20-8000 ms (50 different TR values), echo time (TE): 6.4 ms, flip angle: 90°, averages: 1, measurements: 1, number of slices: 1, slice thickness: 1 mm, field of view read: 120 mm/87.5%, resolution: 128/100%, voxel size: 0.9×0.9×1 mm.
# (§7) The analysis and calculations were performed using a Matlab program (Math Works, Natick, Mass., USA). The T1 values were approximated by a three-parameter fit procedure. All signal curves were examined and found to be monoexponential. The investigations were performed in triplicate.
# [2] = tested on: LNCaP prostate carcinoma cells; assay: as above; type: cell-based, human; conditions: for uptake / signal intensity of the cells in T1-weighted MRT images: 20 minutes incubation, washed, 130 μM
# Protocol: as §1, §2, §3, §4, §5, §6, §7
# [3] = tested on: colon carcinoma cells (Colo205); assay: Confocal laser scanning microscopy (CLSM) of cellular uptake; type: cell-based, human; conditions: 20 minutes incubation, 10 μg/ml
# Protocol: (§8) The cells were grown to 80% confluency at 37° C., 5% CO2 (vol/vol) in 4-well plates (NUNC, Wiesbaden, Germany) with about 300,000 cells per well.
# (§9) U373 human glioma cells, human prostate carcinoma cells PC3 and LNCaP, human Jurkat lymphoma cells, and human colon carcinoma cells Colo205 were grown in RPMI1640 ready mix medium containing L-glutamine and 10% fetal bovine serum (FBS)-gold (PAA Laboratories, Pasching, Austria). U2OS human osteosarcoma cells and HeLa human cervix carcinoma cells were grown in high glucose Dulbeccos modified Eagle's medium containing GlutaMax™ and pyrovate and 10% FBS-gold. Healthy human prostate cells (CC2555, Lonza, Verviers, Belgium) were cultivated in prostate endothelial cell growth medium (PrEGM, Lonza, Verviers, Belgium).
# (§10) The compounds 1, 2 and 4 were dissolved at 1 mg/ml in pure ethanol (Riedel de Haen, Sigma-Aldrich, Taufkirchen, Germany) and then diluted in the appropriate medium for the cells to 10 μg/ml of conjugate and 1% ethanol. The cells were incubated at 37° C. in an atmosphere of 5% CO2 for 20 minutes with the compounds. After this, the cells were rinsed three times with medium and then incubated with medium again. This experiment was also performed with free sulforhodamine B with a corresponding amount.
# (§11) The confocal laser scanning microscopy was performed on an inverted LSM510 laser scanning microscope (Carl Zeiss) (objective: LD Achroplan 40×0.6, Plan Neofluar 20×0.50, 40×0.75). For the rhodamine fluorescence excitation the 543 nm beam of a helium-neon laser with suitable beam splitters and barrier filters were used. All measures were performed at least three times on living, non-fixed cells.
# [4] = tested on: LNCaP prostate carcinoma cells; assay: as above; type: cell-based, human; conditions: 20 minutes incubation, 10 μg/ml
# Protocol: as §8, §9, §10, §11
# [5] = tested on: PC-3 prostate carcinoma cells; assay: Fluorescence activated cell sorting (FACS) of cellular uptake; type: cell-based, human; conditions: 20 minutes incubation
# Protocol: (§12) For the fluorescence activated cell sorting (FACS), cells were grown in 75 cm^2 culture flasks (Corning Costar, Bodenheim, Germany) (80% confluency) under the same conditions as described for the confocal laser scanning microscopy. Accutase™ (PAA Laboratories, Pasching, Austria) was added to achieve detachment of the cells, which were harvested and subsequently alequoted into Eppendorf tubes (Eppendorf, Hamburg, Germany) (1×10^6 cells per tube). The cells were incubated for 20 minutes with the compounds 1, 2 and 4 (10 μg/ml in the appropriate medium with 1% ethanol) and the compound 10 (130 μM in the appropriate medium).
# (§13) Afterwards, the cells were washed three times in PBS and centrifuged at 800 rpm for 5 minutes. Then 300 μl FACS buffer (D-PBS containing 1% parafomaldehyde) were added. The samples were measured immediately. Approximately 20,000 events were recorded per sample. The fluorescence excitation was achieved by an argon laser (488 nm). The fluorescence was detected using a 580-610 and a 560-680 nm band-pass filter. All investigations were performed in triplicate.
# (§14) Mean rhodamine and fluorescein isothiocyanate fluorescence values of the samples were acquired using the WinMDI software (Joseph Trotter, Scripps Research Institute, San Diego, Calif., USA) and then statistically evaluated.
# [6] = tested on: non-prostate tumor cell lines; assay: as above; type: cell-based, human; conditions: 20 minutes incubation
# Protocol: as §12, §13, §14
# [7] = tested on: PC-3 prostate carcinoma cells; assay: Confocal laser scanning microscopy (CLSM) of cellular uptake; type: cell-based, human; conditions: 20 minutes incubation, 260 μM
# Protocol: as §8, §9, §10
# The compound 10 was dissolved in culture medium (260 μM). Lys(FITC)-aminobourgeonal (compound 7) was dissolved in culture medium with 1% ethanol (260 μM). The cells were incubated for 20 minutes (compound 10) and for 2 days (compounds 7 and 10). This assay was also performed with free FITC. After the incubation the cells were rinsed three times with medium and again incubated in medium. Propidium iodide (PI) (molecular probes, Eugene, Oreg., USA) was added to stain death cells.
# as §11, with “All measures were performed at least three times on living, non-fixed cells.” left out
# [8] = tested on: healthy prostate cells (CC2555); assay: Fluorescence activated cell sorting (FACS) of cellular uptake; type: cell-based, human; conditions: 20 minutes incubation, 130 μM
# Protocol: as §12, §13, §14
# [9] = tested on: LNCaP prostate carcinoma cells; assay: as above; type: cell-based, human; conditions: 20 minutes incubation, 130 μM
# Protocol: as §12, §13, §14
# [10] = tested on: osteosarcoma cells (U2OS); assay: Confocal laser scanning microscopy (CLSM) of cellular uptake; type: cell-based, human; conditions: 20 minutes incubation, 260 μM
# Protocol: as §8, §9
# The compound 10 was dissolved in culture medium (260 μM). Lys(FITC)-aminobourgeonal (compound 7) was dissolved in culture medium with 1% ethanol (260 μM). The cells were incubated for 20 minutes (compound 10) and for 2 days (compounds 7 and 10). This assay was also performed with free FITC. […]
# as §11, with “All measures were performed at least three times on living, non-fixed cells.” left out
# [11] = tested on: human PC3 prostate carcinoma in the right thigh of a nude mouse; assay: Magnetic resonance tomography of nude mouse with implanted tumor; type: in vivo; conditions: 90 minutes after intravenous administration
# Protocol: PC3 and LNCaP prostate tumor cells were grown to 80% confluency, detached with Accutase™ (PAA Laboratories, Pasching, Austria) and then harvested. The cells were washed with PBS three times and then drawn up into a 30 g Micro-Fine™ insulin syringe (Becton Dickinson, Franklin Lakes, N.J., USA). Approximately 5×10^5 cells per mouse were injected into the right thigh of a male CD1 Nu/Nu mouse (Charles River, WIGA, Sulzfeld, Germany). The tumor growth was monitored and after 10 to 14 days mice bearing tumors with 2-3 mm in diameter were treated with the conjugate. 1.5 mg of the compound 1 were dissolved in 300 μl PBS containing 20% ethanol and applied intraperitoneally. […] Frozen sections (5 μm thickness) were prepared (LD3000 Cryotom, Leica Biosystems GmbH, Nussloch, Germany) and the rhodamine staining was analyzed by confocal laser scanning
# The magnetic resonance tomography (MRT) measurements were performed using a clinical 3-Tesla Siemens whole body MRT (Magnetom TRIO; Siemens, Erlangen, Germany) with the mice in prone position in a standard circular polarized wrist coil. The MRT protocol consisted of native and post-contrast T1 weighted axial images: slice thickness 2 mm, field of view read: 60 mm/7.5%, Voxel size: 0.2×0.2×2 mm, repetition time (TR): 800 ms, echo time (TE): 9.1 ms, flip angle: 90°, acquisitions: tions: 2, number of slices: 25, distance factor: 0, scan time 06:02 min. […]
# [12] = tested on: PC-3 prostate carcinoma cells; assay: In-vitro MRT / MR relaxometry of cells in Eppendorf tubes; type: cell-based, human; conditions: rank among cell lines
# Protocol: as §1, §2, §3, §4, §5, §6, §7
# [13] = tested on: healthy prostate cells (CC2555); assay: as above; type: cell-based, human; conditions: rank among cell lines
# Protocol: as §1, §2, §3, §4, §5, §6, §7
# [14] = tested on: seven human tumor cell lines and healthy human epithelial prostate cells (CC2555); assay: Confocal laser scanning microscopy (CLSM) of cellular uptake, all cell types; type: cell-based; conditions: corresponding amount of free dye, 20 minutes
# Protocol: as §8, §9
# The compounds 1, 2 and 4 were dissolved at 1 mg/ml in pure ethanol (Riedel de Haen, Sigma-Aldrich, Taufkirchen, Germany) and then diluted in the appropriate medium for the cells to 10 μg/ml of conjugate and 1% ethanol. The cells were incubated at 37° C. in an atmosphere of 5% CO2 for 20 minutes with the compounds. […]
# as §11, with “All measures were performed at least three times on living, non-fixed cells.” left out
compound,measurement,setting,value
"O=C([O-])CN1CCN(CC(=O)[O-])CCN(CC(=O)O)CCN(CC(=O)[O-])CC1.[Gd+3] [Gd-DOTA, reference compound]",signal intensity of the cells in T1-weighted MRT images,[1],remain dark
same,uptake / signal intensity of the cells in T1-weighted MRT images,[2]; LNCaP,not taken up by the prostate carcinoma cells; also recorded: remain dark
"CCN(CC)c1ccc2c(-c3ccc(S(=O)(=O)NCCC(=O)Nc4ccc(/C=C\C=O)cc4)cc3S(=O)(=O)[O-])c3ccc(=[N+](CC)CC)cc-3oc2c1 [compound 2, Sulforhodamine-Sulfonamido βAla-Aminocinnamaldehyde]","uptake into the cells (rhodamine staining, CLSM)",[3],basically unstained
same,"uptake into the cells (rhodamine staining, CLSM)",[4],significantly stained
"CCN(CC)c1ccc2c(-c3ccc(S(=O)(=O)NCCC(=O)NCCCCCCCC=O)cc3S(=O)(=O)O)c3ccc(=[N+](CC)CC)cc-3oc2c1 [compound 4, sulforhodamine-sulfonamido βala-aminooctanal]","fluorescence (rhodamine, FACS)","[5]; PC3, 10 μg/ml",highest fluorescence
same,"fluorescence (rhodamine, FACS)","[6]; remaining carcinoma cell lines, 10 μg/ml",only show little staining
"O=CCCCCCCCCCCNC(=O)C(CCCCN=S=C=Nc1ccc2c(c1)C(=O)OC21c2ccc(O)cc2Oc2cc(O)ccc21)NC(=O)C[N+]12CC[N+]3(CC(=O)O)CCN(CC(=O)O)CC[N+](CC(=O)O)(CC1)[Gd]32 (centres unmarked) [compound 10, Gd-DOTA-Lys(FITC) aminoundecylic aldehyde]","uptake into the cells (FITC staining, CLSM)",[7],very well uptaken into the cytoplasm
same,"staining (FITC fluorescence, FACS)","[5]; PC-3, 130 μM",stained
same,"staining (FITC fluorescence, FACS)",[8],stained
same,"staining (FITC fluorescence, FACS)","[6]; non-prostate tumor cell lines, 130 μM",not the non-prostate tumor cell lines
same,"staining (FITC fluorescence, FACS)",[9],stained
same,"uptake into the cells (FITC staining, CLSM)",[10],not into the osteosarcoma cells
same,MRT staining of non-prostate carcinoma cells,[11],remain unstained
same,MRT signal of the prostate carcinoma cells,[11]; 10 days after implantation,increased signal intensity
same,difference of the T1-time (before minus after the incubation),[12],strongest reduction of the T1-time
same,difference of the T1-time (before minus after the incubation),[13],strongest reduction of the T1-time
same,signal intensity of the cells in T1-weighted MRT images,[1],only with the LNCaP-prostate carcinoma cells
same,uptake / signal intensity of the cells in T1-weighted MRT images,[2]; LNCaP,uptaken into the cytoplasm of the prostate carcinoma cells; also recorded: increase of the signal intensity
same,difference of the T1-time (before minus after the incubation),"[2]; LNCaP, rank among cell lines",strongest reduction of the T1-time
same,T1-time reduction in comparison to simple Gd-DOTA,[2]; prostate carcinoma cells (LNCaP),significantly stronger T1-time reduction
"fluorescein isothiocyanate [FITC, reference compound]","uptake into the cells (FITC staining, CLSM)",[7],not uptaken by the cells
same,"uptake into the cells (FITC staining, CLSM)",[10],not uptaken by the cells
sulforhodamine B,"uptake by any cell type (rhodamine staining, CLSM)",[14],not taken up by any cell types
